Data reported in US20230183305A1, “KERATIN BD-11, PREPARATION METHOD THEREFOR AND PHARMACEUTICAL COMPOSITION AND USE THEREOF” (INSTITUTE OF MATERIA MEDICA, CHINESE ACADEMY OF MEDICAL …, priority 2019, published 2023).
Where a name gives a salt, the structure may show the parent alone.

System: tracheal phenol red excretion in ICR mice
Assay: Expectorant test, phenol red excretion method in mice
Format: in vivo, mouse
Experimental: • Animals: male ICR mice; • Drugs and reagents: Mucosolvan (ambroxol hydrochloride tablets), phenol red, sodium bicarbonate, protein BD-11; • Instruments: centrifuge (Sigma-3K15 type), balance (XS105DU type), Microplate tester (BIO-TEK type).
Experiment grouping: • Solvent control group; • Mucosolvan 30 mg/kg group; • Protein BD-11, 20 mg/kg group, 50 mg/kg group.
The animals were fasted and water was taken freely 16 hours before the experiment. Orally administered Mucosolvan and different doses of protein BD-11 (administration volume 10 ml/kg) in groups, and the solvent control group was given the same volume of distilled water. One hour later, 2.5% phenol red solution was injected intraperitoneally. Mice were sacrificed by neck dislocation after 30 minutes. Take a trachea from below the thyroid cartilage to the branch of the trachea, and put the trachea into 3 ml 5% NaHCO3 solution and let it stand for 3 hours. Take 1 ml of the supernatant and centrifuge at 3000 rpm for 5 minutes. Measure and record the absorbance at 546 nm. According to the standard curve of phenol red, the excretion of phenol red was calculated.
Record the time point of oral administration, the time point of intraperitoneal injection of 2.5% phenol red solution, and the time point of taking the trachea respectively; The absorbance of each group of samples was measured by the microplate reader at 546 nm, Calculate the excretion of phenol red according to the standard curve of phenol red. Calculate the mean and standard error of the data in each group, and use TTEST to compare the solvent control group with other groups, and P<0.05 is considered as a significant difference.
Give Mucosolvan (30 mg/kg) and different doses of protein BD-11 (20 mg/kg, 50 mg/kg). One hour later, 2.5% phenol red solution was intraperitoneally injected, and 30 minutes later, the mice were sacrificed by neck dislocation. Take the trachea from below the thyroid cartilage to the branch of the trachea, put the trachea into 3 ml of 5% NaHCO3 solution and let it stand for 3 hours, take 1 ml of supernatant, centrifuge at 3000 rpm for 5 minutes, measure and record the absorbance at 546 nm. According to the standard curve of phenol red, the excretion of phenol red was calculated.

Nc1c(Br)cc(Br)cc1CN[C@H]1CC[C@H](O)CC1 [Mucosolvan, ambroxol hydrochloride, reference compound]
Phenol red excretion (Mucosolvan 30 mg/kg oral, X±SEM, n=10): 1.061 ± 0.117 µg/mL
Amount of phenol red excretion vs solvent control group (Mucosolvan 30 mg/kg, P<0.05): significantly increased
